Reference: PubChem BioAssay AID180 (DTP/NCI, 2004)

Test system: BDF1 mice, Adenocarcinoma 755 s.c., tumor weight T/C
Experiment: NCI In Vivo Anticancer Drug Screen. Data for tumor model Adenocarcinoma 755 (subcutaneous) in B6D2F1 (BDF1) mice
Conditions: endpoint: mean tumor weight, schedule: Q01DX011 (ip), higher = larger tumour
Outline: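 Readout: T/C, i.e. treated-group measurement over vehicle-control measurement. Endpoint is survival or tumor size in tumor-bearing mice given compound.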

[1] = dose: 50.0 mg/kg/injection, vehicle: carboxymethylcellulose (CMC)
[2] = dose: 100.0 mg/kg/injection, vehicle: carboxymethylcellulose (CMC)
[3] = dose: 12.0 mg/kg/injection, vehicle: carboxymethylcellulose (CMC)
[4] = dose: 25.0 mg/kg/injection, vehicle: carboxymethylcellulose (CMC)

CSc1ncc(Br)c(Nc2ccccc2C)n1
T/C (dose: 15.0 mg/kg/injection, vehicle: methylcellulose (MC)): 94 % of control
T/C (dose: 31.0 mg/kg/injection, vehicle: methylcellulose (MC)): 87 % of control
T/C (dose: 62.0 mg/kg/injection, vehicle: methylcellulose (MC)): 110 % of control
T/C (dose: 125.0 mg/kg/injection, vehicle: methylcellulose (MC)): 117 % of control
T/C (dose: 250.0 mg/kg/injection, vehicle: methylcellulose (MC)): 107 % of control

CC(C)Cn1cnc2c(Sc3c([N+](=O)[O-])ncn3C)nc(N)nc21
T/C (dose: 0.2 mg/kg/injection, vehicle: methylcellulose (MC)): 71 % of control
T/C (dose: 0.39 mg/kg/injection, vehicle: methylcellulose (MC)): 70 % of control
T/C (dose: 0.78 mg/kg/injection, vehicle: methylcellulose (MC)): 68 % of control
T/C (dose: 3.12 mg/kg/injection, vehicle: methylcellulose (MC)): 48 % of control
T/C (dose: 6.25 mg/kg/injection, vehicle: methylcellulose (MC)): 22 % of control
T/C (dose: 12.5 mg/kg/injection, vehicle: methylcellulose (MC)): 7 % of control
T/C (dose: 25.0 mg/kg/injection, vehicle: methylcellulose (MC)): 2 % of control

Cn1c(=O)c2c(n(C)c1=O)[n+]([O-])c([N+]1([O-])CCOCC1)n2C
T/C (dose: 30.0 mg/kg/injection, vehicle: methylcellulose (MC)): 91 % of control
T/C (dose: 60.0 mg/kg/injection, vehicle: methylcellulose (MC)): 100 % of control
T/C (dose: 120.0 mg/kg/injection, vehicle: methylcellulose (MC)): 95 % of control
T/C (dose: 240.0 mg/kg/injection, vehicle: methylcellulose (MC)): 95 % of control

Ic1ncnc2c1ncn2C1CCCO1 (stereo not given)
T/C [1]: 94 % of control
T/C [2]: 84 % of control

COc1ccc(C[n+]2cc([O-])on2)cc1
T/C (dose: 0.39 mg/kg/injection, vehicle: carboxymethylcellulose (CMC)): 75 % of control
T/C (dose: 0.78 mg/kg/injection, vehicle: carboxymethylcellulose (CMC)): 80 % of control
T/C (dose: 1.56 mg/kg/injection, vehicle: carboxymethylcellulose (CMC)): 63 % of control
T/C (dose: 3.0 mg/kg/injection, vehicle: carboxymethylcellulose (CMC)): 70 % of control
T/C (dose: 6.0 mg/kg/injection, vehicle: carboxymethylcellulose (CMC)): 89 % of control
T/C (dose: 6.25 mg/kg/injection, vehicle: carboxymethylcellulose (CMC)): 57 % of control
T/C [3]: 52 % of control
T/C (dose: 12.5 mg/kg/injection, vehicle: carboxymethylcellulose (CMC)): 51 % of control
T/C (dose: 24.0 mg/kg/injection, vehicle: carboxymethylcellulose (CMC)): 67 % of control

CCN(CC)CCCC(C)Nc1c2ccc(Cl)cc2nc2ccc(OC)cc12 (stereo not given)
T/C [4]: 68 % of control
T/C [1]: 62 % of control
T/C [2]: 52 % of control

O=S1(=O)OCc2ccccc21
T/C (dose: 27.5 mg/kg/injection, vehicle: carboxymethylcellulose (CMC)): 113 % of control
T/C (dose: 27.5 mg/kg/injection, vehicle: methylcellulose (MC)): 118 % of control
T/C (dose: 55.0 mg/kg/injection, vehicle: carboxymethylcellulose (CMC)): 68 % of control
T/C (dose: 55.0 mg/kg/injection, vehicle: methylcellulose (MC)): 98 % of control
T/C (dose: 110.0 mg/kg/injection, vehicle: methylcellulose (MC)): 17 % of control

CC(=O)Nc1c(Cl)c(Cl)c2c(c1Cl)Cc1cc(Br)ccc1-2
T/C [3]: 30 % of control
T/C [4]: 41 % of control

CN(C)S(=O)(=O)c1nc(Cl)c2[nH]cnc2n1
T/C [4]: 98 % of control
T/C (dose: 75.0 mg/kg/injection, vehicle: carboxymethylcellulose (CMC)): 89 % of control
T/C (dose: 225.0 mg/kg/injection, vehicle: carboxymethylcellulose (CMC)): 58 % of control
